Reference: patent US7855076B2, “Use of discoidin domain receptor 1 (DDR1) and agents that affect the DDR1/collagen pathway” (The United States of America as represented by the …, priority 2002, dated 2010)

Key:
Assay type in all cases: cell-based, human
THP-1 cells [1] = assay: Flow cytometry of HLA-DR, CD11c, CD14, CD40 on PMA-treated THP-1 cells
Description: FIG. 5 is a graph showing the effects of collagen-activation of two DDR1 isoforms on the expression of CD11c, CD14, and CD40. Each cell line was plated at 5×10^6 cells/ml on either uncoated or collagen-coated plates and incubated at 37° C. for 24 hours in the presence of 10 nM PMA. Anti-1β integrin antibody (10 μg/ml) was used to block the effect of 1β integrin-collagen interaction. The percentage of CD11c, CD14, or CD40-positive cells is shown. Data are presented as the mean ±SD from three independent experiments.
Parental, mock, DDR1a-overexpressing, or DDR1b overexpressing THP-1 cells were plated at 5×10^6 cells/ml on either uncoated or collagen-coated plates and incubated at 37° C. for 24 or 48 hours in the presence of 10 nM PMA. One hundred thousand cells were suspended in 50 μl of cold PBS containing 0.1% NaN3, […] BSA and 200 μg/ml human IgG in a Falcon 2052 tube, and incubated for 10 minutes on ice. One μg of mouse monoclonal antibody against CD11c, CD14 CD40, or HLA-DR, or control mouse IgG were added to each tube and the cells were incubated for another 15 minutes on ice. The cells were washed with PBS, and then incubated with 1 μg of FITC-conjugated goat anti-mouse IgG for 15 minutes on ice. At the end of incubation, propidium iodide (PI) (100 μM) was added to each tube. The cells were washed by PBS, and subsequently analyzed by using a FACS scan (Becton Dickinson). Dead cells, determined by the incorporation of PI, were gated out. Results were processed by using the Cellquest software (Becton Dickinson).
The cells were then rinsed three times with RPMI 1640 containing 10% FCS, and incubated either with the p38 MAP kinase inhibitor SB203580, the MEK (MAP or ERK kinase) ½ inhibitor PD98059, or dimethylsulfoxide (DMSO) for 30 minutes, followed by an additional 12 hour incubation in the presence of 10 nM PMA plus collagen. The expression of HLA-DR was analyzed by flow cytometry.

THP-1 cells [2] = assay: Cytokine and chemokine release from PMA-treated THP-1 cells by ELISA
Description: The production of DDR1a- or 1b-overexpressing THP-1 cells was previously described (Kamohara et al., FASEB J. 15:2724, 2001). Briefly, the human monocytic leukemic cell line, THP-1, was transduced with control retrovirus containing the vector only (mock-transduced) or retrovirus expressing DDR1a or DDR1b. THP-1 cells transduced by each virus were selected with G418, and cloned by limiting dilution. The cloned THP-1 cells were maintained in RPMI 1640 medium supplemented with 100 μg/ml gentamycin and 10% FCS (complete medium). Cells were plated at 1×10^6/ml and treated with PMA (10 nM) for variable times on uncoated or collagen-coated tissue culture plates for quantification of cytokine or chemokine release.
In addition, the concentration of MCP-1 in the culture supernatant of each cell line was measured by ELISA. The concentration of MCP-1 was measured in the Lymphokine Testing Laboratory, Clinical Services Program, SAIC-Frederick (Frederick, Md.) by using an enzyme-linked immunosorbent assay (ELISA) kit (R&D Systems, Minneapolis, Minn.) specific for the chemokine.
In addition, the concentrations of IL-1β, IL-8, and MIP-1α in the culture supernatants of each cell line were quantified by ELISA (FIG. 6). The concentration of IL-1β, IL-8, and MIP-1α were measured in the Lymphokine Testing Laboratory, Clinical Services Program, SAIC-Frederick (Frederick, Md.) by using enzyme-linked immunosorbent assay (ELISA) kits (R&D Systems, Minneapolis, Minn.) specific for each human cytokine and chemokine. […]

NF-κB = assay: Nuclear translocation of NF-κB by EMSA; conditions: DDR1b-overexpressing cells on collagen-coated plates
Description: Nuclear translocation of NF-κB was examined by EMSA. Nuclear extracts were prepared by a method previously reported (Ueda et al., J. Biol. Chem. 272:31092, 1997), and aliquots were frozen at −80° C. For EMSA, end-labeled ^32P-oligonucleotide probes corresponding to the NF-KB binding site of the Ig κ-chain (5′-[…]-3′) (SEQ ID NO: 15) or MCP-1 (A2 site; 5′-[…]-3′) (SEQ ID NO: 16) gene were used. Each probe was incubated with 5 μg of nuclear extracts in 20 μl of binding cocktail (50 mM Tris-HCl, pH 7.4, 25 MM MgCl2, 0.5 mM DTT, 50% glycerol) at 4° C. for 15 minutes. The DNA-protein complexes were resolved on a 5% polyacrylanide gel. The dried gels were exposed to X-ray films.

[3] = test system: monocyte-derived dendritic cells; assay: Allogeneic MLR with monocyte-derived DCs
Description: FIG. 9 is a graph showing the effect of DDR1 antibody on the antigen presenting capacity of DCs.
The most important function of DCs is to present antigens to naïve T cells. […] Human T cells were purified from PBMCs of healthy donors by magnetic separation using CD3^+microbeads (Miltenyi Biotech Inc., Auburn, Calif.). T cells (1×10^5) were placed in 96-well plates with increasing numbers of DC (5×10^2−1×10^4 cells) in 200 μl culture medium. On day four, 1 μCi/well of [^3H]thymidine was added, and incorporation of radioactivity was measured after 15 hours of incubation. All tests were performed in triplicate.

[4] = DDR1b-overexpressing THP-1 cells, PMA, collagen-coated plates, 48 hours
[5] = DDR1b-overexpressing cells, collagen-coated plates, PMA, 24 hours

## C[S+]([O-])c1ccc(-c2nc(-c3ccncc3)c(-c3ccc(F)cc3)[nH]2)cc1 (stereo not shown) [SB203580]
THP-1 cells [1]; collagen-activated PMA-treated DDR1b-overexpressing cells, 24 hours
  expression of HLA-DR: dose-dependently inhibited
THP-1 cells [2]; [4]
  collagen-induced up-regulation of IL-1β release: inhibited
  collagen-induced up-regulation of IL-8 release: inhibited
  collagen-induced up-regulation of MCP-1 release: inhibited
  collagen-induced up-regulation of MIP-1α release: inhibited
NF-κB
  increased NF-κB/DNA binding: not affected
[3]
  capacity to activate allogeneic MLR of TNF-α-induced DCs and its up-regulation by DDR1 activation: almost completely abrogated

## TNF-α
[3]; cell number-dependent
  allogeneic MLR by induced mDCs: markedly activated

## collagen
THP-1 cells [1]; DDR1b-overexpressing cells, collagen-activated, PMA-treated, 12 hours
  cells expressing HLA-DR: Approximately 10%
THP-1 cells [1]; DDR1b-overexpressing cells, collagen-coated plates, 10 nM PMA, 24 hour
  cells expressing HLA-DR: approximately 25%
THP-1 cells [1]; DDR1b-overexpressing cells, collagen-coated plates, 10 nM PMA, 48 hour
  cells expressing HLA-DR: Approximately 70%
THP-1 cells [1]; [5]
  cells expressing CD11c: approximately 53%
  cells expressing CD14: ~35%
  cells expressing CD40: approximately 19%
THP-1 cells [2]; PMA-treated DDR1b-overexpressing cells
  increase of MCP-1 released on collagen-coated plates: approximately 7 fold
NF-κB
  amount of NF-κB/DNA complex: significantly increased
